# From ChEMBL document CHEMBL4800728, “Data for DCP probe JNJ-54119936” (2021)
# Tests used:
# [1] = biological target: Nuclear receptor ROR-alpha (Homo sapiens) (UniProt P35398); test: ThermoFluor Binding Assay (RORA)
# [2] = biological target: Nuclear receptor ROR-beta (Homo sapiens) (UniProt Q92753); test: ThermoFluor Binding Assay (RORB)
# Chain of Nuclear receptor ROR-beta (Homo sapiens) (Q92753 whole entry): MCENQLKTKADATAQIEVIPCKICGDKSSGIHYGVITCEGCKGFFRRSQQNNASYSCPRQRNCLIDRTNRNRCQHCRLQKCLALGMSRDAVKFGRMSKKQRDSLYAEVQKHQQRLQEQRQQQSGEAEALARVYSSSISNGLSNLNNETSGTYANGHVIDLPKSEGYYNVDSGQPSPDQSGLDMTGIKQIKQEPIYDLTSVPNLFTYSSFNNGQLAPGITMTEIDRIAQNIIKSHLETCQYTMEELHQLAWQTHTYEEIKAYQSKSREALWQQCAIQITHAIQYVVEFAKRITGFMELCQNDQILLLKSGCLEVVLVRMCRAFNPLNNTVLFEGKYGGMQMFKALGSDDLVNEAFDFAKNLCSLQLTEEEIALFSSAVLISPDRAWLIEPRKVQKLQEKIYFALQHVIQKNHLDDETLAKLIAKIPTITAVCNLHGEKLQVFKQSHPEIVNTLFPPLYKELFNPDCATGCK
# Chain of Nuclear receptor ROR-alpha (Homo sapiens) (P35398 whole entry): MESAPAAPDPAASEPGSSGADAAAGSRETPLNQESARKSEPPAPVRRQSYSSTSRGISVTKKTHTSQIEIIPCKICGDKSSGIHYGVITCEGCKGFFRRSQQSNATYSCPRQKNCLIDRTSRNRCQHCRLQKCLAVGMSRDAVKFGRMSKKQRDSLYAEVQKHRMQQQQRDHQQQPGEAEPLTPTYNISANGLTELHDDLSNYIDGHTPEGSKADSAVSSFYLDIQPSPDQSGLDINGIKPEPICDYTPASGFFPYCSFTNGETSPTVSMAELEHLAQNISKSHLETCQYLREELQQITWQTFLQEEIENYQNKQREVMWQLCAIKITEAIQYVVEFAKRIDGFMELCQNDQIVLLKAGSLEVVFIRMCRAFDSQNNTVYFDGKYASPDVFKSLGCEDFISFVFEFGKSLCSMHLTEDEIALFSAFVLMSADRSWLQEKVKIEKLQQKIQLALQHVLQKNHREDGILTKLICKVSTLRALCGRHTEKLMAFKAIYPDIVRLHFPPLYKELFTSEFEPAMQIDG
compound,measurement,setting,value
COc1nc2ccc([C@@](O)(c3ccc(Cl)cc3)c3cncn3C)cc2c(Cl)c1Cc1ccc(-n2cccn2)cc1,qKD,[1],16.8 µM
same,qKD,[2],40 µM
